Measured values from patent EP4424699A1, “HBV CORE PROTEIN BINDING COMPOUNDS AND USES THEREOF” (Julius-Maximilians-Universität Würzburg, priority 2023, dated 2024).
Positions of bridges follow the written chain, without caps; N, C: chain ends. Non-standard residues stand in square brackets, D forms with d. Residues, ends and D or L forms follow the SMILES beside them. Chains are numbered I, II in the order given. AEEA = NCCOCCOCC(=O)O

Assays:
[1] = system: HBV production in Hep G2 human hepatoblastoma cell lines; conditions: cited from earlier work; for IC50: inhibition of HBV production
[2] = molecular target: T1, HBc (Hepatitis B virus genotype D subtype ayw, UniProt P03146); test: Turbidity assay of HBc solutions at 350 nm; conditions: 50 µM HBc solution, RT
T1 construct: Full length wild type (fl wt) HBc; made in house; host or cells: E. coli
Experimental: The concentrations of the P1-, P2- and SLLGRM-dimers were varied between 0.1-100 µM and the concentration of HBc kept constant at 10 µM for the P1- and P2-dimer and at 50 µM for the SLLGRM-dimer. All experiments were performed using a standard photometer (GENESYS™ UV/VIS spectral photometer, Thermo Fisher Scientific, Hillsboro, OR, USA) at RT and at a wavelength of 350 nm using disposable UV transparent cuvettes.

[3] = molecular target: T2, HBc capsids (Hepatitis B virus genotype D subtype ayw, UniProt P03146); test: Cryo-EM of HBc capsids in complex with peptide dimers; format: binding; parameters: Full length wild type (fl wt) HBc; made in house; host or cells: E. coli; conditions: from EM-maps
Experimental: In a plasma cleaner (model PDC-002. Harrick Plasma, Ithaca, NY, USA) holey carbon grids (R1.2/1.3, 300 mesh Cu grids, Quantifoil Micro Tools, Jena, Germany) were made hydrophilic by plasma discharging. This was done at a pressure of 29 Pa for 2 minutes using ambient air as plasma medium at "medium power" of the instrument. First, solutions of purified HBc (200 µM) in complex with the P1dC- and the SLLGRM-dimer (each 400 µM) were prepared in buffer A and 3.5 µl aliquots of each sample were applied onto the grids. For plunge freezing of grids ethane was used as medium (liquefied by liquid nitrogen) with the help of a Vitrobot (mark IV, FEI Company, Hillsboro, OR, USA) using filter papers of Whatman (type 541). The Vitrobot had following settings: no wait and drain times, 6 s of blot time, blot force of 25 and a nominal humidity of 100 %. The frozen grids were stored in liquid nitrogen for at least one night before being used for image acquisition.
Cryo-EM was done as previously described (Makbul, Kraft, et al., 2021). In brief: Movies were acquired with the software EPU on a Krios G3 electron microscope equipped with a Falcon III camera (Thermo Fisher Scientific, Hillsboro, OR, USA) in linear mode at a magnification of 75,000 with an accelerating voltage of 300 kV. The total exposure was 40 e-/Å^2 and was fractionated across 20 fractions. […]

[4] = molecular target: T3, fl wt HBc capsids (Hepatitis B virus genotype D subtype ayw, UniProt P03146); test: Isothermal titration calorimetry (ITC) of peptide dimers with HBc capsids; format: binding
T3 construct: Full length wild type (fl wt) HBc; made in house; host or cells: E. coli
Experimental: Binding stoichiometry, binding affinity and thermodynamic parameters were determined. Table 2 iTC200 instrument's specifications used for the interaction analysis between peptide-dimers and capsids.

[5] = physchem; conditions: buffer obtained from the dialysis of capsids (buffer A), pH 7.5, aqueous buffer
Experimental: Purified and pooled fractions (ca 8 ml) of capsids were filtered (Rotilabo syringe filter with a pore size of 220 nm, Carl Roth GmbH Co. KG, Karlsruhe, Germany), dialysed against 1.4 L buffer A (40 mM HEPES, 200 mM NaCl, 1 mM MgCl2, 1 mM CaCl2, pH 7.5) using a dialysis membrane tube (Spectra Por Biotech cellulose ester tube, 1 MDa MWCO, Spectrum Laboratories, Inc., Rancho Dominguez, CA, USA). The dialysis was performed at 4 °C under gentle stirring for 16 h overnight. Next day, the dialysed sample was removed from the dialysis tube and concentrated in a centrifuge using a concentrator (30 kDa MWCO Spin-X UF 6 mL, Corning Inc., Corning, NY, USA). Before the determination of the concentration by the Bradford assay (Roti Nanoquant, Carl Roth GmbH Co. KG, Karlsruhe, Germany) the concentrate was filtered (centrifugal filter unit Ultrafree MC, pore size of 100 nm, Merck KGaA, Darmstadt, Germany). The dimeric peptides were dissolved in the buffer obtained from the dialysis of capsids. […] Before filling the ITC cell and syringe, all samples were degassed for 10 minutes at 20 °C (ThermoVac, Malvern Panalytical, Malvern, Worcestershire, UK). Using a MicroCal iTC200 instrument (Malvern Panalytical, Malvern, Worcestershire, UK) solutions of dimeric peptides were titrated into solutions of capsids according to specifications in the Table 2. […]

[6] = molecular target: full length wild type HBV core protein (fl wt HBc), capsids (Hepatitis B virus (genotype D; strain ayw)) (UniProt P03146); test: cryo-EM maps of HBc capsids with bound dimer
[7] = molecular target: full length wild type HBV core protein (fl wt HBc), capsids (Hepatitis B virus (genotype D; strain ayw)) (UniProt P03146); test: ITC, dimer titrated into fl wt HBc capsids, 20 °C, one site model
[8] = molecular target: full length wild type HBV core protein (fl wt HBc), capsids (Hepatitis B virus (genotype D; strain ayw)) (UniProt P03146); test: ITC KD of the dimer against the literature KD of monomeric SLLGRM
[9] = molecular target: T2, HBc capsids; conditions: monomeric peptides; cited from earlier work
[10] = molecular target: full-length wild type HBc (fl wt HBc) (Hepatitis B virus genotype D subtype ayw, UniProt P03146); conditions: result in words; cited from earlier work
[11] = molecular target: HBc's interaction to the surface protein L-HBs (Hepatitis B virus genotype D subtype ayw, UniProt P03146); conditions: result in words; cited from earlier work

In the case of SLLGRMKG [23], the IC50 [1] is given as 6.4 µM.
In the case of `CSCC[C@H](NC(=O)[C@H](CCCNC(=N)N)NC(=O)CNC(=O)[C@H](CC(C)C)NC(=O)[C@H](CC(C)C)NC(=O)[C@@H](N)CO)C(=O)NCCOCCOCC(=O)NCCOCCOCC(=O)NCCOCCOCC(=O)NCCOCCOCC(=O)NCCCC[C@@H](NC(=O)COCCOCCNC(=O)COCCOCCNC(=O)COCCOCCNC(=O)COCCOCCNC(=O)[C@H](CCSC)NC(=O)[C@H](CCCNC(=N)N)NC(=O)CNC(=O)[C@H](CC(C)C)NC(=O)[C@H](CC(C)C)NC(=O)[C@@H](N)CO)C(=O)O` [SLLGRM-dimer] (I: H-SLLGRM[AEEA][AEEA][AEEA][AEEA][dK]-OH / II: H-SLLGRM[AEEA][AEEA][AEEA][AEEA]; amide I:11-II:C; N-terminus and C-terminus assumed), the concentration inducing turbidity [2] is reported as “high micromolar concentrations”, the “molar ratio to HBc capsids” value [3] is reported as 0.25 and the “affinity increase over the respective monomers” value ([4]; KD of dimer versus KD of monomer) is reported as 26 fold. The Ka ([4]; association constant, ITC at 20 °C, refers to monomeric HBc) was 208200 ±31284 (1)/(M), the ΔH ([4]; binding enthalpy, ITC) was -25.316 ± 2.748 kcal/mol and the ΔS ([4]; binding entropy, ITC) was -62 ±10 (cal)/(mol × K). The N ([4]; stoichiometry, ITC at 20 °C, one site model, refers to monomeric HBc) was 0.145 ±0.023 and the solubility [5] was at least 8 mM.
Compound SLLGRM-dimer (peptide) has a molar ratio [6] of 0.25, a Kd [7] of 4.89 µM and a N (stoichiometry) [7] of 0.145. The binding enthalpy (ΔH) [7] was -25300, the binding entropy (ΔS) [7] was -62 and the fold affinity increase over the respective monomer [8] was 26 fold.
For GSLLGRMKGA [Pep2], the Kd [9] is given as 68 µM, the “production HB viruses reduced to” value ([1]; at high micromolar concentrations) is given as “ca. 30%” and the IC50 [1] is given as 0.8 µM.
For LLGRMK, the “binding to fl wt HBc” value [10] is listed as “bound”.
For SLLGRMKGA [22], the IC50 [1] is listed as 2.4 µM.
For MHRSLLGRMKGA [Pep1], the Kd [9] is given as 26 µM.
In the case of SLLGRM, the Kd [9] is listed as 130 µM.
For ALLGRMKG [21], the “inhibition of HBc's interaction to L-HBs” value [11] is given as “inhibited”.
